Data set [1] deals with T1, Heparanase (Homo sapiens, UniProt Q9Y251).
T1 sequence (Q9Y251 whole entry): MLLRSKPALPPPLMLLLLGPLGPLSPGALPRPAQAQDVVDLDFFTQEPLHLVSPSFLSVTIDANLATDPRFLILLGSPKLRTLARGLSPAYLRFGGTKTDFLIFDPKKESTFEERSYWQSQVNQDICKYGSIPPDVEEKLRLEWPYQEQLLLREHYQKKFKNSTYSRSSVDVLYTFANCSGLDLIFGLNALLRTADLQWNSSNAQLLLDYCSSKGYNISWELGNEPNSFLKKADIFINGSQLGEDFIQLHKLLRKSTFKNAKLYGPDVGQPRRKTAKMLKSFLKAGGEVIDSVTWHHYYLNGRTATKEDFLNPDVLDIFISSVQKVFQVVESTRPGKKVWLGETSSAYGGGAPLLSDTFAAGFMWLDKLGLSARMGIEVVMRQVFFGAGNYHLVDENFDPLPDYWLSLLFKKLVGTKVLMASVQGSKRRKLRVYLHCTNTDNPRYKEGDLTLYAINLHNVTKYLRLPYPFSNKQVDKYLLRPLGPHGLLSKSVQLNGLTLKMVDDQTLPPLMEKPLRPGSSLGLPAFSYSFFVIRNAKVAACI
The data set can be described thus: Inhibitory activity against heparanase from human platelets.

The target in data set [2] is T2, Heparanase (Homo sapiens) (UniProt Q9Y251).
T2 sequence (whole entry): T1 sequence (Q9Y251 whole entry)
The data set can be described thus: Inhibitory activity against heparanase from human platelets at 0.83 uM.

The target of data set [3] is T2, Heparanase (Homo sapiens). The data set can be described thus: Inhibitory activity against heparanase from human platelets at 25 uM.
Data set [4] is described as follows: Plasma concentration in mice after 1 hr of administration of 50 mg/kg, ip. It counts as ADME, organism-based. On the set-up: dose 50 mg/kg, route intraperitoneal. The settings on record: mouse.
Data set [5] can be described thus: Plasma concentration in mice after 4 hrs of administration of 50 mg/kg, ip. On the set-up: dose 50 mg/kg, route intraperitoneal. The settings on record: mouse. It counts as ADME, organism-based.
The nature of data set [6]: Plasma concentration in mice after 1 hr of administration of 30 mg/kg, po. It counts as ADME, organism-based. On the set-up: dose 30 mg/kg, route oral. The following applies: mouse.
A short description of data set [7]: Plasma concentration in mice after 4 hrs of administration of 30 mg/kg, po. It counts as ADME, organism-based. On the set-up: dose 30 mg/kg, route oral. The following applies: mouse.

A word on the IC50: it is the concentration at which inhibition is half-maximal. The low end stands for greater potency, the high end for weaker potency. `COc1ccc(C(=O)N(C)c2ccc(-c3nc4ccccc4[nH]3)cc2)cc1Br` came in with an IC50 in data set [1] above 15 µM.

Broadly, the inhibition is the share of the control response that was lost under treatment. For `COc1ccc(C(=O)Nc2ccc(CNc3cccc(-c4nc5ccccc5[nH]4)c3)cc2)cc1Br`, in data set [2], the inhibition was below 10%.

In data set [2], `COc1ccc(C(=O)Nc2ccc(CNc3ccc(Cc4nc5ccccc5[nH]4)cc3)cc2)cc1Br` returned an inhibition below 10%.

In the case of `COc1ccc(S(=O)(=O)Nc2ccc(-c3nc4ccccc4[nH]3)cc2)cc1Br`, the IC50 in data set [1] was above 15 µM.

In turn, `CCOc1ccc(C(=O)Nc2ccc(-c3nc4cc(C)c(Cl)cc4[nH]3)cc2)cc1Br` showed an inhibition in data set [3] of 30%.

Turning to `COc1ccc(NC(=O)c2ccc(-c3nc4ccccc4[nH]3)cc2)cc1Br`, the IC50 in data set [1] is above 15 µM.

Take `COc1ccc(CC(=O)Nc2ccc(-c3nc4ccccc4[nH]3)cc2)cc1Br`: the IC50 in data set [1] was above 15 µM.

As to `CCOc1ccc(C(=O)Nc2ccc(-c3nc4ccccc4[nH]3)cc2)cc1Br`, in data set [4], the concentration at 1 h was determined as 530 nM. Also, in data set [5], the concentration at 4 h is 380 nM.

For the compound `CCOc1ccc(C(=O)Nc2ccc(-c3nc4cc(OC)ccc4[nH]3)cc2)cc1Br`, the inhibition in data set [3] was 73%.

In data set [3], `CCOc1ccc(C(=O)Nc2ccc(-c3nc4cc(OC)c(OC)cc4[nH]3)cc2)cc1Br` came in with an inhibition of 35%.

Compound `CCOc1ccc(C(=O)Nc2ccc(-c3nc4cc(Cl)c(Cl)cc4[nH]3)cc2)cc1Br` had an inhibition in data set [3] of 30%.

In turn, `COc1ccc(CNc2ccc(-c3nc4ccccc4[nH]3)cc2)cc1Br` returned an IC50 in data set [1] above 15 µM.

`COc1ccc(C(=O)Nc2ccc(-c3nc4ccccc4[nH]3)cc2)cc1Cl` gave an IC50 in data set [1] above 15 µM.

In the case of `COc1ccc(C(=O)Nc2ccc(-c3nc4ccccc4[nH]3)cc2)cc1Br`, the concentration at 1 h in data set [4] was 2240 nM. The compound also gave a concentration at 4 h in data set [5] of 670 nM.

On to `COc1ccc(C(=O)Nc2ccc(CNc3ccc(-c4nc5ccccc5[nH]4)cn3)cc2)cc1Br`, for which the concentration at 1 h in data set [6] was 3800 nM. The compound further gave a concentration at 4 h in data set [7] of 5500 nM.

`COc1ccc(C(=O)Nc2ccc(-c3nc4ccccc4[nH]3)cc2)cc1F` had an IC50 in data set [1] above 15 µM.

For `COc1ccc(C(=O)Nc2cccc(CNc3ccc(-c4nc5ccccc5[nH]4)cc3)c2)cc1Br`, the inhibition in data set [2] was below 10%.

Source of the values: ChEMBL document CHEMBL1147775, “N-(4-{[4-(1H-Benzoimidazol-2-yl)-arylamino]-methyl}-phenyl)-benzamide derivatives as small molecule heparanase inhibitors” (Bioorg Med Chem Lett, 2006).
